Data set [1] in a line: LD50 os (acute toxicity). Conditions: in vivo, po.
The target in data set [2] is T1, β-receptors (Canis lupus familiaris, UniProt P79148).
T1 construct: tachycardia in conscious dogs; from tissue; host or cells: heart in the living conscious dog (in vivo, i.v. dosing)
Put plainly: antagonizing isopropylnoradrenaline induced tachycardia in conscious dogs (i.v.). The class given is in vivo. The following applies: dog, iv, read-out: ED50 in antagonizing isopropylnoradrenaline induced tachycardia. From the text: As a standard compound pronethalol was taken into consideration. Pronethalol, i.e. 2-isopropylamino-1-([…])-ethanol, is a known β-blocking agent.

Molecules are shown by their SMILES. Like-named read-outs stand apart in the source and are kept apart here.

T1 sequence (P79148 whole entry): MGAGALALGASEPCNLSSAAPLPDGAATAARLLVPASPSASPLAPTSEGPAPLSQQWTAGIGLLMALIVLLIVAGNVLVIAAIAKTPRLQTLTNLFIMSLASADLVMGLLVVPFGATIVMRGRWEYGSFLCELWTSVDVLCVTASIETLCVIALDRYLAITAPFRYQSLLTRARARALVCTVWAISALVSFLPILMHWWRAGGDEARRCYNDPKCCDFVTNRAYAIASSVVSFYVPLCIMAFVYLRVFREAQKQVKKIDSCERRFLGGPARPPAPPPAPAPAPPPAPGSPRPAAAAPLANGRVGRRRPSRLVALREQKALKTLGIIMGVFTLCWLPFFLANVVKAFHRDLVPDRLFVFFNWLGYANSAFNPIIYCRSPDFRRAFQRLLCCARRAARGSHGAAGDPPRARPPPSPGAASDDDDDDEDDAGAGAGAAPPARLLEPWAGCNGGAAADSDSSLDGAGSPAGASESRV

Turning to `CC(C)NCC(O)COc1cccc2c1C(=O)OC2.Cl` (centres unmarked) [Example 1, 7-(2-Hydroxy-3-isopropylamino-propoxy)-phthalide hydrochloride], the LD50 – broadly, the dose expected to kill half of the subjects tested – in data set [1] is > 500 mg/kg. The ED50 (commonly the dose at which the effect has come halfway, by size or by number of responders) in data set [2] turned out to be 0.01 mg/kg.
`CC(C)NCC(O)COc1ccc2c(c1)C(=O)OC2` (centres unmarked) [Example 2, 6-(2-Hydroxy-3-isopropylamino-propoxy)-phthalide]: the LD50 in data set [1] was > 500 mg/kg. Further, the ED50 in data set [2] (conscious dogs, i.v.) stood at 0.3 mg/kg.
Consider `CC(C)(C)NCC(O)COc1cccc2c1C(=O)OC2.Cl` (centres unmarked) [Example 5, 7-(2-Hydroxy-3-tert-butylamino-propoxy)-phthalide hydrochloride], for which, in data set [1], the LD50 was > 500 mg/kg.
As to `CC(C)NCC(O)COc1ccc2c(c1)C(=O)OCC2.Cl` (centres unmarked) [Example 6, 7-(2-Hydroxy-3-isopropylamino-propoxy)-1-isochromanone hydrochloride], the LD50 in data set [1] is > 500 mg/kg. The ED50 in data set [2] is 0.1 mg/kg.
Regarding `CC(C)(C)NCC(O)COc1ccc2c(c1)C(=O)OCC2.Cl` (centres unmarked) [Example 7, 7-(2-Hydroxy-3-tert-butylamino-propoxy)-1-isochromanone hydrochloride], the LD50 in data set [1] was > 500 mg/kg. In addition, the ED50 in data set [2] came out at 0.055 mg/kg.
For `CC(C)(C)NCC(O)COc1cccc2c1COC2=O.Cl` (centres unmarked) [Example 8, 4-(2-Hydroxy-3-tert-butylaminopropoxy)-phthalide hydrochloride], in that order: > 500 mg/kg and 0.07 mg/kg.
With `CC(C)(C)NCC(O)COc1ccc2c(c1)C(=O)OC2.Cl` (centres unmarked) [Example 9, 6-(2-Hydroxy-3-tert-butylamino-propoxy)-phthalide hydrochloride], the LD50 in data set [1] was > 500 mg/kg. Further, the ED50 in data set [2] worked out at 0.1 mg/kg.
Turning to `CC(C)CNCC(O)COc1cccc2c1C(=O)OC2.Cl` (centres unmarked) [Example 10, 7-(2-Hydroxy-3-isobutylamino-propoxy)-phthalide hydrochloride], in data set [1], the LD50 was > 500 mg/kg. In addition, the ED50 in data set [2] was found to be 0.1 mg/kg.
For `CC(C)(C)NCC(O)COc1cccc2c1C(=O)OCC2.Cl` (centres unmarked) [Example 12, 8-(2-Hydroxy-3-tert-butylamino-propoxy)-1-isochromanone hydrochloride], in that order: > 500 mg/kg and 0.003 mg/kg.
On to `COc1cc(OCC(O)CNC(C)(C)C)c2c(c1)C(=O)OC(C)C2.Cl` (centres unmarked) [Example 13, 5-(2-Hydroxy-3-tert-butylamino-propoxy)-7-methoxy-3-methyl-1-isochromanone hydrochloride], for which, in data set [1], the LD50 was > 500 mg/kg. Also, the ED50 in data set [2] is 0.005 mg/kg.
For the molecule `CCC1Cc2c(OCC(O)CNC(C)(C)C)cc(OC)cc2C(=O)O1.Cl` (centres unmarked) [Example 14, 3-Ethyl-5-(2-hydroxy-3-tert-butylamino-propoxy)-7-methoxy-1-isochromanone hydrochloride], in data set [1], the LD50 is > 500 mg/kg. Moreover, the ED50 in data set [2] is 0.1 mg/kg.
Regarding `COc1cc(OCC(O)CNC(C)(C)C)c2c(c1)C(=O)OC(C)(C)C2.O=C(O)C(=O)O` (centres unmarked) [Example 15, 5-(2-Hydroxy-tert-butylamino-propoxy)-7-methoxy-3,3-dimethyl-1-isochromanone oxalate], in data set [1], the LD50 was > 500 mg/kg. Besides, in data set [2], the ED50 came to 0.018 mg/kg.

The record behind these values is patent US3935236A, “Aminopropanol substituted isochromanones and phthalides” (Gruppo Lepetit, S.p.A., priority 1973, dated 1976).
